Source: patent publication US6355799B1, “Substituted benzene compounds, process for their preparation, and herbicidal and defoliant compositions containing them” (ISK Americas Incorporated, priority 1997, dated 2002)

What was measured:
Format in all cases: in vivo
[1] = test system: upland rice (Oryza sp., var. Tebonnet, RICE); experiment: Post-emerge test, crop safety; settings: post-emerge, 14 days after application, rating scale 0-100
Summary of the method: (§1)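 Compounds in acetone were track-sprayed at 187 l/ha, 15–1000 g ai/ha, onto sandy loam pots. Pre-emerge seeds were sown one day before spraying, with surface watering afterwards. Post-emerge plants were at the 2–3 leaf stage and sprayed with 0.25% v/v non-ionic surfactant. Injury was rated 0–100 at 14 days.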

[2] = test system: field corn (Zea mays L., var. Dekalb 535, CORN); experiment: Post-emerge test, crop safety; settings: post-emerge, 14 days after application, rating scale 0-100
Summary of the method: as §1

[3] = test system: redroot pigweed (Amaranthus retroflexus, AMARE); experiment: Pre-emerge test, greenhouse herbicide activity screening; settings: rated 14 days after application, 0 = no damage, 100 = complete death
Summary of the method: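 Herbicidal damage is scored 0 (none) to 100 (complete plant death) two weeks after a simulated field spray. Rates span 15–1000 g ai/ha, delivered in acetone at 187 l/ha. For post-emergence treatments, plants have 2–3 leaves and the spray carries 0.25% v/v non-ionic surfactant.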

[4] = test system: green foxtail (Setaria viridis, SETVI); experiment: Post-emerge test, greenhouse herbicide activity screening; settings: post-emerge, 14 days after application, rating scale 0-100
Summary of the method: as §1

[5] = test system: large crabgrass (Digitaria sanguinalis, DIGSA); experiment: as above; settings: post-emerge, 14 days after application, rating scale 0-100
Summary of the method: as §1

[6] = test system: barnyardgrass (Echinochloa crus-galli, ECHCG); experiment: as above; settings: post-emerge, 14 days after application, rating scale 0-100
Summary of the method: as §1

[7] = test system: ivyleaf morningglory (Ipomoea hederacea, IPOHE); experiment: as above; settings: post-emerge, 14 days after application, rating scale 0-100
Summary of the method: as §1

[8] = test system: johnsongrass (Sorghum halepense, SORHA); experiment: as above; settings: post-emerge, 14 days after application, rating scale 0-100
Summary of the method: as §1

[9] = test system: lambsquarters (Chenopodium album, CHEAL); experiment: as above; settings: post-emerge, 14 days after application, rating scale 0-100
Summary of the method: as §1

[10] = test system: velvetleaf (Abutilon theophrasti, ABUTH); experiment: as above; settings: post-emerge, 14 days after application, rating scale 0-100
Summary of the method: as §1

[11] = test system: sicklepod (Cassia obtusifolia, CASOB); experiment: as above; settings: post-emerge, 14 days after application, rating scale 0-100
Summary of the method: as §1

[12] = test system: redroot pigweed (Amaranthus retroflexus, AMARE); experiment: as above; settings: post-emerge, 14 days after application, rating scale 0-100
Summary of the method: as §1

[13] = test system: common ragweed (Ambrosia artemisizfolia L., AMBEL); experiment: as above; settings: post-emerge, 14 days after application, rating scale 0-100
Summary of the method: as §1

[14] = test system: green foxtail (Setaria viridis, SETVI); experiment: Pre-emerge test, greenhouse herbicide activity screening; settings: rated 14 days after application, 0 = no damage, 100 = complete death
Summary of the method: as §1

[15] = test system: large crabgrass (Digitaria sanguinalis, DIGSA); experiment: as above; settings: rated 14 days after application, 0 = no damage, 100 = complete death
Summary of the method: as §1

[16] = test system: barnyardgrass (Echinochloa crus-galli, ECHCG); experiment: as above; settings: rated 14 days after application, 0 = no damage, 100 = complete death
Summary of the method: as §1

[17] = test system: ivyleaf morningglory (Ipomoea hederacea, IPOHE); experiment: as above; settings: rated 14 days after application, 0 = no damage, 100 = complete death
Summary of the method: as §1

[18] = test system: johnsongrass (Sorghum halepense, SORHA); experiment: as above; settings: rated 14 days after application, 0 = no damage, 100 = complete death
Summary of the method: as §1

[19] = test system: lambsquarters (Chenopodium album, CHEAL); experiment: as above; settings: rated 14 days after application, 0 = no damage, 100 = complete death
Summary of the method: as §1

[20] = test system: velvetleaf (Abutilon theophrasti, ABUTH); experiment: as above; settings: rated 14 days after application, 0 = no damage, 100 = complete death
Summary of the method: as §1

[21] = test system: sicklepod (Cassia obtusifolia, CASOB); experiment: as above; settings: rated 14 days after application, 0 = no damage, 100 = complete death
Summary of the method: as §1

[22] = test system: common ragweed (Ambrosia artemisizfolia L., AMBEL); experiment: as above; settings: rated 14 days after application, 0 = no damage, 100 = complete death
Summary of the method: as §1

[23] = test system: upland rice (Oryza sp., var. Tebonnet, RICE); experiment: Pre-emerge test, crop safety; settings: rated 14 days after application, 0 = no damage, 100 = complete death
Summary of the method: (§2)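 Sandy loam pots; pre-emerge: sown 1 d pre-spray, surface-watered after, then bottom-watered. Post-emerge: sown 8–21 d before, 2–3 leaf stage, + 0.25% v/v NIS, bottom-watered. Acetone, 187 l/ha track spray, 15–1000 g ai/ha. 0–100 injury score, day 14.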

[24] = test system: field corn (Zea mays L., var. Dekalb 535, CORN); experiment: Pre-emerge test, crop safety; settings: rated 14 days after application, 0 = no damage, 100 = complete death
Summary of the method: as §2

## COc1c(Cl)cc(F)c(-n2c(=O)cc(C(F)(F)F)n(C)c2=O)c1NC(=O)c1ccccc1F [2-39]
[1]; 63 g ai/ha
  phytotoxicity rating RICE: 30
[1]; 250 g ai/ha
  phytotoxicity rating RICE: 70
[2]; 63 g ai/ha
  phytotoxicity rating CORN: 20
[2]; 250 g ai/ha
  phytotoxicity rating CORN: 70
[3]; 63 g ai/ha
  Pre-emerge Herbicidal Activity, phytotoxicity rating (0-100), AMARE: 100
[3]; 250 g ai/ha
  Pre-emerge Herbicidal Activity, phytotoxicity rating (0-100), AMARE: 100
[4]; 63 g ai/ha
  phytotoxicity rating SETVI: 20
[4]; 250 g ai/ha
  phytotoxicity rating SETVI: 80
[5]; 63 g ai/ha
  phytotoxicity rating DIGSA: 0
[5]; 250 g ai/ha
  phytotoxicity rating DIGSA: 50
[6]; 63 g ai/ha
  phytotoxicity rating ECHCG: 0
[6]; 250 g ai/ha
  phytotoxicity rating ECHCG: 60
[7]; 63 g ai/ha
  phytotoxicity rating IPOHE: 99
[7]; 250 g ai/ha
  phytotoxicity rating IPOHE: 100
[8]; 63 g ai/ha
  phytotoxicity rating SORHA: 10
[8]; 250 g ai/ha
  phytotoxicity rating SORHA: 60
[9]; 63 g ai/ha
  phytotoxicity rating CHEAL: 90
[9]; 250 g ai/ha
  phytotoxicity rating CHEAL: 95
[10]; 63 g ai/ha
  phytotoxicity rating ABUTH: 100
[10]; 250 g ai/ha
  phytotoxicity rating ABUTH: 100
[11]; 63 g ai/ha
  phytotoxicity rating CASOB: 60
[11]; 250 g ai/ha
  phytotoxicity rating CASOB: 90
[12]; 63 g ai/ha
  phytotoxicity rating AMARE: 70
[12]; 250 g ai/ha
  phytotoxicity rating AMARE: 95
[13]; 63 g ai/ha
  phytotoxicity rating AMBEL: 50
[13]; 250 g ai/ha
  phytotoxicity rating AMBEL: 95
[14]; 63 g ai/ha
  Pre-emerge Herbicidal Activity, phytotoxicity rating (0-100), SETVI: 100
[14]; 250 g ai/ha
  Pre-emerge Herbicidal Activity, phytotoxicity rating (0-100), SETVI: 100
[15]; 63 g ai/ha
  Pre-emerge Herbicidal Activity, phytotoxicity rating (0-100), DIGSA: 99
[15]; 250 g ai/ha
  Pre-emerge Herbicidal Activity, phytotoxicity rating (0-100), DIGSA: 100
[16]; 63 g ai/ha
  Pre-emerge Herbicidal Activity, phytotoxicity rating (0-100), ECHCG: 90
[16]; 250 g ai/ha
  Pre-emerge Herbicidal Activity, phytotoxicity rating (0-100), ECHCG: 100
[17]; 63 g ai/ha
  Pre-emerge Herbicidal Activity, phytotoxicity rating (0-100), IPOHE: 95
[17]; 250 g ai/ha
  Pre-emerge Herbicidal Activity, phytotoxicity rating (0-100), IPOHE: 100
[18]; 63 g ai/ha
  Pre-emerge Herbicidal Activity, phytotoxicity rating (0-100), SORHA: 60
[18]; 250 g ai/ha
  Pre-emerge Herbicidal Activity, phytotoxicity rating (0-100), SORHA: 100
[19]; 63 g ai/ha
  Pre-emerge Herbicidal Activity, phytotoxicity rating (0-100), CHEAL: 100
[19]; 250 g ai/ha
  Pre-emerge Herbicidal Activity, phytotoxicity rating (0-100), CHEAL: 100
[20]; 63 g ai/ha
  Pre-emerge Herbicidal Activity, phytotoxicity rating (0-100), ABUTH: 100
[20]; 250 g ai/ha
  Pre-emerge Herbicidal Activity, phytotoxicity rating (0-100), ABUTH: 100
[21]; 63 g ai/ha
  Pre-emerge Herbicidal Activity, phytotoxicity rating (0-100), CASOB: 100
[21]; 250 g ai/ha
  Pre-emerge Herbicidal Activity, phytotoxicity rating (0-100), CASOB: 100
[22]; 63 g ai/ha
  Pre-emerge Herbicidal Activity, phytotoxicity rating (0-100), AMBEL: 100
[22]; 250 g ai/ha
  Pre-emerge Herbicidal Activity, phytotoxicity rating (0-100), AMBEL: 100
[23]; 63 g ai/ha
  Pre-emerge phytotoxicity rating (0-100), crop damage, RICE: 90
[23]; 250 g ai/ha
  Pre-emerge phytotoxicity rating (0-100), crop damage, RICE: 99
[24]; 63 g ai/ha
  Pre-emerge phytotoxicity rating (0-100), crop damage, CORN: 70
[24]; 250 g ai/ha
  Pre-emerge phytotoxicity rating (0-100), crop damage, CORN: 95
